Legend:
[1] = test system: Septoria tritici (SEPTTR); test: 3-day curative test (3DC) vs. leaf blotch of wheat; assay type: in vivo; details: Zymoseptoria tritici, read-out: % DC Obs (percent disease control observed); for pest or weed control at 0.2 ppm: application rate 0.2 ppm; for pest or weed control at 1.5 g/ha: application rate 1.5 g ai/Ha, SC formulation, track sprayer
Description: (§1) Evaluation of Curative and Protectant Activity of Fungicide Mixtures vs. Leaf Blotch of Wheat (Mycosphaerella graminicola; anamorph: Septoria tritici; Bayer code: SEPTTR)
(§2) Wheat plants (variety Yuma) were grown from seed in a greenhouse in plastic pots with a surface area of 27.5 square centimeters (cm2) containing 50% mineral soil/50% soil-less Metro mix, with 8-12 seedlings per pot. The plants were employed for testing when the first leaf was fully emerged, which typically took 7 to 8 days after planting. Test plants were inoculated with an aqueous spore suspension of Septoria tritici either 3-days prior to (3-day curative test; 3DC) or 1-day after fungicide treatments (1-day protectant test; 1DP). After inoculation the plants were kept at 100% relative humidity (one day in a dark dew chamber followed by two days in a lighted mist chamber) to permit spores to germinate and infect the leaf. The plants were then transferred to a greenhouse until disease symptoms were fully expressed.
(§3) For the mixture studies with compound of Formula IA: Treatments consisted of fungicides, including a compound of Formula IA, epoxiconazole, prothioconazole, azoxystrobin, pyraclostrobin, penthiopyrad, isopyrazam, bixafen, boscalid, prochloraz, chlorothalonil, and isobutyric acid (3S,6S,7R,8R)-8-benzyl-3-[(3-isobutyryloxymethoxy-4-methoxypyridine-2-carbonyl)-amino]-6-methyl-4,9-dioxo-[1,5]dioxonan-7-yl ester (compound A), applied either individually or as two-way mixtures with a compound of Formula IA. Technical grades of materials were dissolved in acetone to make stock solutions, which were then used to perform three-fold dilutions in acetone either for each individual fungicide component or for the two-way mixtures. Desired fungicide rates were obtained after mixing dilutions with nine volumes of water containing 110 parts per million (ppm) Triton X-100. Ten mL fungicide solutions were applied onto six pots of plants using an automated booth sprayer, which utilized two 6218-1/4 JAUPM spray nozzles operating at 20 pounds per square inch (psi) set at opposing angles to cover both leaf surfaces. All sprayed plants were allowed to air dry prior to further handling. Control plants were sprayed in the same manner with the solvent blank.
(§4) For the mixture studies with compound of Formula IB: Compound IB and the compound B or their two-way mixtures were diluted in three-fold series using suspension concentrate (SC) formulations in 0.1% Trycol 5941. Spray solutions were applied onto plants using a track sprayer with an application volume of 200 Liters/hectare (L/Ha).
(§5) When disease reached 80 to 100% on the control plants, infection levels were assessed on treated plants visually and scored on a scale of 0 to 100 percent. Percentage of disease control was then calculated using the ratio of disease on treated plants relative to control plants.
(§6) Colby's equation was used to determine the fungicidal effects expected from the mixtures. (See Colby, S. R. Calculation of the synergistic and antagonistic response of herbicide combinations. Weeds 1967, 15, 20-22.)
(§7) The following equation was used to calculate the expected activity of mixtures containing two active ingredients, A and B:
(§8) A=observed efficacy of active component A at the same concentration as used in the mixture;
(§9) B=observed efficacy of active component B at the same concentration as used in the mixture.

[2] = test system: Septoria tritici (SEPTTR); test: 1-day protectant test (1DP) vs. leaf blotch of wheat; assay type: in vivo; details: Zymoseptoria tritici, read-out: % DC Obs (percent disease control observed); for pest or weed control at 0.2 ppm: application rate 0.2 ppm; for pest or weed control at 1.5 g/ha: application rate 1.5 g ai/Ha, SC formulation, track sprayer
Description: as §1, §2, §3, §4, §5, §6, §7, §8, §9

[3] = 3DC SEPTTR, application rate 0.6 ppm
[4] = 3DC SEPTTR, application rate 1.8 ppm
[5] = 3DC SEPTTR, application rate 5.6 ppm
[6] = 1DP SEPTTR, application rate 0.6 ppm
[7] = 1DP SEPTTR, application rate 1.8 ppm
[8] = 1DP SEPTTR, application rate 5.6 ppm

## OC(Cc1ccccc1Cl)(Cn1[nH]cnc1=S)C1(Cl)CC1 (stereo not drawn) [Prothioconazole, 2-[2-(1-chlorocyclopropyl)-3-(2-chlorophenyl)-2-hydroxypropyl]-1,2-dihydro-3H-1,2,4-triazole-3-thione]
[1]; [3]
  pest or weed control at 0.6 ppm: 10%
[1]; [4]
  pest or weed control at 1.8 ppm: 8%
[1]; [5]
  pest or weed control at 5.6 ppm: 20%
[2]; [6]
  pest or weed control at 0.6 ppm: 2%
[2]; [7]
  pest or weed control at 1.8 ppm: 2%
[2]; [8]
  pest or weed control at 5.6 ppm: 25%

## CC(C)CC(C)c1sccc1NC(=O)c1cn(C)nc1C(F)(F)F (stereo not drawn) [Penthiopyrad, N-[2-(1,3-dimethylbutyl)-3-thienyl]-1-methyl-3-(trifluoromethyl)-1H-pyrazole-4-carboxamide]
[1]; 3DC SEPTTR
  pest or weed control at 0.2 ppm: 8%
[1]; [3]
  pest or weed control at 0.6 ppm: 4%
[1]; [4]
  pest or weed control at 1.8 ppm: 4%
[2]; 1DP SEPTTR
  pest or weed control at 0.2 ppm: 2%
[2]; [6]
  pest or weed control at 0.6 ppm: 10%
[2]; [7]
  pest or weed control at 1.8 ppm: 17%

## CO/C=C(/C(=O)OC)c1ccccc1Oc1cc(Oc2ccccc2C#N)ncn1 [Azoxystrobin, methyl (αE)-2-[[6-(2-cyanophenoxy)-4-pyrimidinyl]oxy]-α-(methoxymethylene)benzeneacetate]
[1]; [3]
  pest or weed control at 0.6 ppm: 10%
[1]; [4]
  pest or weed control at 1.8 ppm: 14%
[1]; [5]
  pest or weed control at 5.6 ppm: 20%
[2]; [6]
  pest or weed control at 0.6 ppm: 3%
[2]; [7]
  pest or weed control at 1.8 ppm: 3%
[2]; [8]
  pest or weed control at 5.6 ppm: 33%

## COc1ccnc(C(=O)N[C@H]2COC(=O)[C@H](Cc3ccccc3)[C@@H](OC(=O)C(C)C)[C@H](C)OC2=O)c1OCOC(=O)C(C)C [A, Isobutyric acid (3S,6S,7R,8R)-8-benzyl-3-[(3-isobutyryloxymethoxy-4-methoxy-pyridine-2-carbonyl)-amino]-6-methyl-4,9-dioxo-[1,5]dioxonan-7-yl ester]
[1]
  pest or weed control at 0.45 ppm: 22%
  pest or weed control at 1.35 ppm: 52%
[2]
  pest or weed control at 0.45 ppm: 3%
  pest or weed control at 1.35 ppm: 80%

## N#Cc1c(Cl)c(Cl)c(Cl)c(C#N)c1Cl [Chlorothalanil, 2,4,5,6-tetrachloro-1,3-benzenedicarbonitrile]
[1]; 3DC SEPTTR, application rate 13.5 ppm
  pest or weed control at 13.5 ppm: 4%
[1]; 3DC SEPTTR, application rate 42 ppm
  pest or weed control at 42 ppm: 4%
[1]; 3DC SEPTTR, application rate 125 ppm
  pest or weed control at 125 ppm: 6%
[2]; 1DP SEPTTR, application rate 13.5 ppm
  pest or weed control at 13.5 ppm: 0%
[2]; 1DP SEPTTR, application rate 42 ppm
  pest or weed control at 42 ppm: 2%
[2]; 1DP SEPTTR, application rate 125 ppm
  pest or weed control at 125 ppm: 0%

## CCCN(CCOc1c(Cl)cc(Cl)cc1Cl)C(=O)n1ccnc1 [Prochloraz, N-propyl-N-[2-(2,4,6-trichlorophenoxy)ethyl]-1H-imidazole-1-carboxamide]
[1]
  pest or weed control at 1.8 ppm: 24%
  pest or weed control at 5.6 ppm: 22%
[2]
  pest or weed control at 1.8 ppm: 10%
  pest or weed control at 5.6 ppm: 33%

## CC(C)C1C2CCC1c1c(NC(=O)c3cn(C)nc3C(F)F)cccc12 (stereo not drawn) [Isopyrazam, 3-(difluoromethyl)-1-methyl-N-[1,2,3,4-tetrahydro-9-(1-methylethyl)-1,4-methanonaphthalen-5-yl]-1H-pyrazole-4-carboxamide]
[1]
  pest or weed control at 0.6 ppm: 10%
  pest or weed control at 1.8 ppm: 18%
[2]
  pest or weed control at 0.6 ppm: 15%
  pest or weed control at 1.8 ppm: 23%

## O=C(Nc1ccccc1-c1ccc(Cl)cc1)c1cccnc1Cl [Boscalid, 2-chloro-N-(4′-chloro[1,1′-biphenyl]-2-yl)-3-pyridinecarboxamide]
[1]; [4]
  pest or weed control at 1.8 ppm: 12%
[1]; [5]
  pest or weed control at 5.6 ppm: 34%
[2]; [7]
  pest or weed control at 1.8 ppm: 5%
[2]; [8]
  pest or weed control at 5.6 ppm: 30%

## Fc1cc(Oc2cc(C(F)(F)F)ccn2)ccc1CCNc1ncnc2c(F)ccc(F)c12 [B, (5,8-Difluoroquinazolin-4-yl)-{2-[2-fluoro-4-(4-trifluoromethylpyridin-2-yloxy)-phenyl]-ethyl}-amine]
[1]; 3DC SEPTTR
  pest or weed control at 1.5 g/ha: 41%
[2]; 1DP SEPTTR
  pest or weed control at 1.5 g/ha: 36%

## Cn1cc(C(=O)Nc2ccc(F)cc2-c2ccc(Cl)c(Cl)c2)c(C(F)F)n1 [Bixafen, N-(3′,4′-dichloro-5-fluoro[1,1′-biphenyl]-2-yl)-3-(difluoromethyl)-1-methyl-1H-pyrazole-4-carboxamide]
[1]; 3DC SEPTTR
  pest or weed control at 0.2 ppm: 6%
[1]; [3]
  pest or weed control at 0.6 ppm: 4%
[1]; [4]
  pest or weed control at 1.8 ppm: 14%
[2]; 1DP SEPTTR
  pest or weed control at 0.2 ppm: 3%
[2]; [6]
  pest or weed control at 0.6 ppm: 7%
[2]; [7]
  pest or weed control at 1.8 ppm: 12%

## Cc1ccc(COc2ncc(F)c(N)n2)cc1 [Compound IA]
[1]; 3DC SEPTTR, application rate 0.03 ppm
  pest or weed control at 0.03 ppm: 2%
[1]; 3DC SEPTTR, application rate 0.1 ppm
  pest or weed control at 0.1 ppm: 4%
[1]; 3DC SEPTTR, application rate 0.3 ppm
  pest or weed control at 0.3 ppm: 10%
[1]; 3DC SEPTTR, application rate 0.9 ppm
  pest or weed control at 0.9 ppm: 44%
[1]; 3DC SEPTTR, application rate 2.8 ppm
  pest or weed control at 2.8 ppm: 94%
[1]; 3DC SEPTTR, application rate 8.3 ppm
  pest or weed control at 8.3 ppm: 100%
[2]; 1DP SEPTTR, application rate 0.03 ppm
  pest or weed control at 0.03 ppm: 2%
[2]; 1DP SEPTTR, application rate 0.1 ppm
  pest or weed control at 0.1 ppm: 3%
[2]; 1DP SEPTTR, application rate 0.3 ppm
  pest or weed control at 0.3 ppm: 0%
[2]; 1DP SEPTTR, application rate 0.9 ppm
  pest or weed control at 0.9 ppm: 22%
[2]; 1DP SEPTTR, application rate 2.8 ppm
  pest or weed control at 2.8 ppm: 85%
[2]; 1DP SEPTTR, application rate 8.3 ppm
  pest or weed control at 8.3 ppm: 98%

## Nc1nc(OCc2ccc(F)cc2)ncc1F [Compound IB]
[1]; 3DC SEPTTR
  pest or weed control at 1.5 g/ha: 74%
[2]; 1DP SEPTTR
  pest or weed control at 1.5 g/ha: 46%

## Fc1ccc([C@]2(Cn3cncn3)O[C@H]2c2ccccc2Cl)cc1 [Epoxiconazole, re1-1-[[(2R,3S)-3-(2-chlorophenyl)-2-(4-fluorophenyl)oxiranyl]methyl]-1H-1,2,4-triazole]
[1]; 3DC SEPTTR, application rate 0.125 ppm
  pest or weed control at 0.125 ppm: 18%
[1]; 3DC SEPTTR, application rate 0.375 ppm
  pest or weed control at 0.375 ppm: 46%
[2]; 1DP SEPTTR, application rate 0.125 ppm
  pest or weed control at 0.125 ppm: 2%
[2]; 1DP SEPTTR, application rate 0.375 ppm
  pest or weed control at 0.375 ppm: 83%
